According to patent US20090208493A1, “Compounds and methods for the selective inhibition of ABCB1, ABCC1 and ABCG2 transporters and the treatment of cancers, especially drug resistant cancers and high throughput flow cytometry assay to detect selective inhibitors” (STC. UNM, priority 2007, published 2009):
Structures can show the parent of a compound that is named as a salt. Where two headings read alike, the source gives them in different places.

Tests used:
ABCB1 [1] = molecular target: T1, ABCB1 (Homo sapiens, UniProt P08183); conditions: 5 μM
T1 sequence (P08183 whole entry): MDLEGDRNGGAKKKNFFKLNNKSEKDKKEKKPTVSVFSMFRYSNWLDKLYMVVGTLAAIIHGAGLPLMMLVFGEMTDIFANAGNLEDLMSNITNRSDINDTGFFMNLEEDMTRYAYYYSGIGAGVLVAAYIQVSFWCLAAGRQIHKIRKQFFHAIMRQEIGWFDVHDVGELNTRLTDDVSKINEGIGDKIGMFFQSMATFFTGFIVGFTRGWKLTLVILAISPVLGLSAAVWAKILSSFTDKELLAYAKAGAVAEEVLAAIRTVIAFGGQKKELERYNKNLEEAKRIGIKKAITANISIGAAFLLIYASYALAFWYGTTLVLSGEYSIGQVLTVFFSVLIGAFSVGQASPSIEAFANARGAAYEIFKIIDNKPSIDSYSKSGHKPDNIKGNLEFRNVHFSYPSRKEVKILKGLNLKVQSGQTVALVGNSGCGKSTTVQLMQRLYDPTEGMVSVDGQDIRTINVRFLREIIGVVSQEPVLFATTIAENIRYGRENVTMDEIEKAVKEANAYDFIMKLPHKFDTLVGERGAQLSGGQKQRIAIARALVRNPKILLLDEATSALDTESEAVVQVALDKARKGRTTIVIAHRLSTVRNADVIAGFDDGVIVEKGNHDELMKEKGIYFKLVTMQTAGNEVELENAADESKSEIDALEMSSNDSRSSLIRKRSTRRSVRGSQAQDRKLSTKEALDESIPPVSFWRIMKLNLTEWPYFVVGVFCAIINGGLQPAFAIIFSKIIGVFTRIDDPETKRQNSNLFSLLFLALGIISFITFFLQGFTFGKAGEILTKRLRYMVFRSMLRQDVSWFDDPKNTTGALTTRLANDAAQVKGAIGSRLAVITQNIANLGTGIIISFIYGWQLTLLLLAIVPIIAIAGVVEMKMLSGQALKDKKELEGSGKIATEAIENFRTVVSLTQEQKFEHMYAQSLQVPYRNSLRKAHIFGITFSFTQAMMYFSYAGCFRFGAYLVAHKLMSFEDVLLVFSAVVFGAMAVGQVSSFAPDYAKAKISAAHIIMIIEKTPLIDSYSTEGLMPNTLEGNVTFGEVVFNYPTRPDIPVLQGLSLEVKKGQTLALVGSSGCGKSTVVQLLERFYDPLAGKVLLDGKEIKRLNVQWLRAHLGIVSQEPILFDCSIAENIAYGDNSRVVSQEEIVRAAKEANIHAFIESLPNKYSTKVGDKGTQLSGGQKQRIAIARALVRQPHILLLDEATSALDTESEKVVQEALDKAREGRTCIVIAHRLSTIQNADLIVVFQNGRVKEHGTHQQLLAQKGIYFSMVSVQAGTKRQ

[2] = system: DNR-resistant Jurkat cells; assay: Chemreversal50: sensitisation of DNR-resistant Jurkat cells to 100 nM DNR; type: cell-based, human; conditions: read-out: Chemorev50 (SD), 50% of reversal of chemotherapeutic effect determined in in vitro screen
Description: To enable this analysis, a 3-log range of each “hit” compound was added in 2 mL aliquots to a 6 well plate and, over a range of 7 days, total cell number and viability was measured using a hemacytometer and trypan blue staining. Fresh media containing 100 nM DNR was added over the course of the experiment to maintain the cell concentration ≧100,000 cells/mL. […] The differences (if any) between the Chemreversal50 and TD50 gave an approximation of an in vitro “therapeutic index” for each compound.

ABCB1 [3] = molecular target: T1, ABCB1; assay: JC-1 efflux HyperCyt flow cytometry assay (ABCB1 reversal); conditions: for hit in primary screen of Prestwick Chemical Library for ABCB1-mediated JC-1 efflux: final concentration of 5 μM
[4] = system: DNR-resistant Jurkat cells; type: cell-based; conditions: media alone, 7 days
[5] = system: Jurkat DNR resistant cells; assay: Chemosensitivity of DNR-resistant Jurkat cells; type: cell-based, human; conditions: for IC50: Homo sapiens, Jurkat cells with acquired resistance to DNR
ABCG2 = molecular target: T2, ABCG2 (Homo sapiens, UniProt Q9UNQ0); assay: JC1 duplex high-throughput flow cytometry assay, ABCG2 (IgMXP3 cells); type: cell-based; conditions: 384 well plate
T2 construct: ABCG2-expressing IgMXP3 cells; endogenous in cells; host or cells: IgMXP3 cells (resistant subline of Igrov1)
T2 sequence (Q9UNQ0 1-655): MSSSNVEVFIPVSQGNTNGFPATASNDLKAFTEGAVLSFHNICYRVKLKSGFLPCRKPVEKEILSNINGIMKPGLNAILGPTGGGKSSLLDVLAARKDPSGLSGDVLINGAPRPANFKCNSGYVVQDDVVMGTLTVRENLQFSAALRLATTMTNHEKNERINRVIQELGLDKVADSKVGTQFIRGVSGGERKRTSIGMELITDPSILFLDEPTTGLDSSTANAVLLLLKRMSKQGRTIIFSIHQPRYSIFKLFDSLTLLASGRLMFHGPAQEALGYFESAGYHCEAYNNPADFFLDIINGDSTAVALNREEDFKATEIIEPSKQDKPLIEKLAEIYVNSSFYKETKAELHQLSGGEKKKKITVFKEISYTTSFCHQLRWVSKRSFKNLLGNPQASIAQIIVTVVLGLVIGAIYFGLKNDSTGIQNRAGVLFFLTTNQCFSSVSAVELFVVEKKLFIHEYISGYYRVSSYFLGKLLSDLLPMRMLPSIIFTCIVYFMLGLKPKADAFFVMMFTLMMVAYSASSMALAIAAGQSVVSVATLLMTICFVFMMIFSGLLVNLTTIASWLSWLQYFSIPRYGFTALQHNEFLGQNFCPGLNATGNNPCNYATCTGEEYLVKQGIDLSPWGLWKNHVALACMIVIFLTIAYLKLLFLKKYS
Description: (§1) Jurkat-DNR cells (ABCB1) were labeled with 0.5 ng/ml FarRed DDAO CellTrace SE (Invitrogen) for 15 min at room temperature, washed twice by centrifugation, then combined with unlabeled IgMXP3 cells (ABCG2) in the assay buffer. The label binds covalently to amine groups in cells and is detected at red fluorescence emission wavelengths of 665±10 nm upon excitation at 635 nm. Final in-well concentration of cells was 3×10^6 cell/ml at a 1:1 ratio of the two cell types.

ABCB1 [6] = molecular target: T1, ABCB1; assay: JC1 duplex high-throughput flow cytometry assay, ABCB1 (Jurkat-DNR cells); type: cell-based; design: endogenous in cells; host or cells: Jurkat cells selected for daunorubicin resistance (Jurkat-DNR); conditions: 384 well plate
Description: as §1

parental Jurkat cells = assay: Chemosensitivity of parental (therapy sensitive) Jurkat cells; type: cell-based; conditions: Homo sapiens
[7] = Homo sapiens, 168 h, DNR-resistant Jurkat cells, fixed 100 nM DNR, 7 days, trypan blue viability

For `CC(=O)O[C@H]1C[C@@]2(C)[C@@H](C[C@@H](O)[C@H]3[C@@]4(C)CC[C@@H](O)[C@@H](C)[C@@H]4CC[C@@]32C)/C1=C(\CCC=C(C)C)C(=O)O` [fusidic acid], the “hit in primary screen of Prestwick Chemical Library for ABCB1-mediated JC-1 efflux” value (“hit in primary screen” below) (ABCB1 [1]) was “inhibiting ABCB1-mediated drug efflux”.

For `C[C@@H]1C[C@H]2[C@@H]3CCC4=CC(=O)C=C[C@]4(C)[C@@]3(Cl)[C@@H](O)C[C@]2(C)[C@@]1(OC(=O)c1ccco1)C(=O)CCl` [Mometasone Furoate, mometasone furoate], the EC50 ([2]; DNR-resistant Jurkat cells, fixed 100 nM DNR, 7 days, trypan blue viability) was 1.4 ± 0.28 µM, the IC50 (ABCB1 [3]; read-out: IC50 (SD), 50% inhibition of drug efflux determined in high-throughput screen, JC-1 efflux, DNR-resistant Jurkat cells) was 0.74 ± 0.13 µM and the “TD50 (SD), 50% toxic dose determined in in vitro screen” value (shortened to “TD50 (SD), 50% toxic dose determined”) [4] was 30.4 µM. For the same molecule, the “TD50 (SD), 50% toxic dose determined” value ([4]; listed as mometasone) was 24.8 ± 8.0 µM.

In the case of `C=C(C)[C@H]1Cc2c(ccc3c2O[C@@H]2COc4cc(OC)c(OC)cc4[C@@H]2C3=O)O1` [rotenone], the “hit in primary screen” value (ABCB1 [3]) is reported as “inhibiting ABCB1-mediated drug efflux”.

Work on `CC(C)COCC(CN(Cc1ccccc1)c1ccccc1)N1CCCC1` (stereo not shown) [Bepridil HCL, bepridil] yielded an EC50 [2, 7] of 3.3 µM and an IC50 (ABCB1 [3]) of 7.4 ± 0.95 µM.

`Cc1cc(C2CCCCC2)n(O)c(=O)c1.NCCO` [ciclopirox ethanolamine] was tested, and the “hit in primary screen” value (ABCB1 [3]) was “inhibiting ABCB1-mediated drug efflux”.

L-asparaginase was tested, and the “increased resistance of DNR-resistant vs parental Jurkat cells” value (“increased resistance of DNR-resistant” below) [5] was “no increased resistance”.

In the case of `CC(=O)N1CCN(c2ccc(OCC3COC(Cn4ccnc4)(c4ccc(Cl)cc4Cl)O3)cc2)CC1` (stereo not shown) [Ketoconazole, ketoconazole], the EC50 [2, 7] is reported as 3.7 µM.

In the case of `Cc1cccc(C)c1NC(=O)CN1CCN(CCCC(c2ccc(F)cc2)c2ccc(F)cc2)CC1` [Lidoflazine, lidoflazine], the EC50 [2, 7] is reported as 3.1 µM and the IC50 (ABCB1 [3]) is reported as 5.4 ± 0.55 µM.

Molecule `COC(=O)[C@H]1[C@H]2C[C@@H]3c4[nH]c5cc(OC)ccc5c4CCN3C[C@H]2C[C@@H](OC(=O)/C=C/c2cc(OC)c(OC)c(OC)c2)[C@@H]1OC` [Rescinnamine, rescinnamine] has an EC50 [2, 7] of 1 µM and an IC50 (ABCB1 [3]) of 1.53 ± 0.5 µM.

Molecule `Fc1ccc(C(OCCN2CCN(CCCc3ccccc3)CC2)c2ccc(F)cc2)cc1` [GBR 12909 HCL, GBR 12909] has an EC50 [2, 7] of 2.1 µM and an IC50 (ABCB1 [3]) of 4.6 ± 0.28 µM.

`CC[C@H](C)[C@H]1O[C@]2(C=C[C@@H]1C)C[C@@H]1C[C@@H](C/C=C(\C)[C@@H](O[C@H]3C[C@H](OC)[C@@H](O[C@H]4C[C@H](OC)[C@@H](O)[C@H](C)O4)[C@H](C)O3)[C@@H](C)/C=C/C=C3\CO[C@@H]4[C@H](O)C(C)=C[C@@H](C(=O)O1)[C@]34O)O2` [avermectin] was tested, and the “hit in primary screen” value (ABCB1 [3]) was “inhibiting ABCB1-mediated drug efflux”.

For `CCOC(=O)Oc1c(OC)cc(C(=O)O[C@@H]2C[C@@H]3CN4CCc5c([nH]c6cc(OC)ccc56)[C@H]4C[C@@H]3[C@H](C(=O)OC)[C@H]2OC)cc1OC` [syrosingopine], the “hit in primary screen” value (ABCB1 [1]) was “inhibiting ABCB1-mediated drug efflux”.

`COC(=O)C1=C(C)NC(C)=C(C(=O)OCCN(C)Cc2ccccc2)C1c1cccc([N+](=O)[O-])c1` (stereo not shown) [Nicardipine HCL, nicardipine] gave an EC50 [2, 7] of 2.6 µM.

With `Cc1c2ccncc2c(C)c2c1[nH]c1ccccc12` [Ellipticine, ellipticine] the EC50 ([2]; Homo sapiens, Jurkat, 168 h) was 1.8 µM, the IC50 (ABCB1 [3]) was 0.99 ± 0.014 µM and the “TD50 (SD), 50% toxic dose determined” value [4] was 3.8 µM. For the same molecule, the “TD50 (SD), 50% toxic dose determined” value ([4]; listed as ellipticine) was 2.7 ± 1.56 µM.

For `CC[C@@H](C(=O)[C@@H](C)[C@@H](O)[C@H](C)CCc1ccc(C)c(O)c1C(=O)O)[C@H]1O[C@](CC)([C@H]2CC[C@](O)(CC)[C@H](C)O2)C[C@@H]1C` [Lasalocid], the “JC1 duplex assay response, ABCG2” value (ABCG2) was “significant assay response for both transporters” and the “JC1 duplex assay response, ABCB1” value (ABCB1 [6]) was “significant assay response for both transporters”.

Molecule `CC[C@H](c1ccc(O)cc1)[C@@H](CC)c1ccc(O)cc1` [Hexestrol, hexestrol] has an EC50 ([2]; Homo sapiens, Jurkat, 168 h) of 12.8 µM and an IC50 (ABCB1 [3]) of 8.3 ± 3.2 µM.

`COc1c(O[C@@H]2O[C@H](CO)[C@@H](O)[C@H](O)[C@H]2O)cc2c(c1OC)-c1ccc(SC)c(=O)cc1[C@@H](NC(C)=O)CC2` [thiocolchicoside] was tested, and the “hit in primary screen” value (ABCB1 [3]) was “inhibiting ABCB1-mediated drug efflux”.

For antimycin, the “hit in primary screen” value (ABCB1 [3]) was “inhibiting ABCB1-mediated drug efflux”.

For `CCCNCC(O)COc1ccccc1C(=O)CCc1ccccc1` (stereo not shown) [Propafenone HCL, propafenone], the EC50 [2, 7] was 4.9 ± 1.3 µM.

For `CC[C@]1(O)C[C@H]2CN(CCc3c([nH]c4ccccc34)[C@@](C(=O)OC)(c3cc4c(cc3OC)N(C=O)[C@H]3[C@@](O)(C(=O)OC)[C@H](OC(C)=O)[C@]5(CC)C=CCN6CC[C@]43[C@@H]65)C2)C1` [VCR, Vincristine], the “increased resistance of DNR-resistant” value [5] was “approximately 70 fold”, the IC50 [5] was 316 µM and the IC50 (parental Jurkat cells) was 6.31 µM.

`C[C@]12C=CC(=O)C=C1CC[C@@H]1[C@@H]2[C@@H](O)C[C@@]2(C)[C@H]1CC[C@]2(O)C(=O)CO` [PRED, prednisolone] was tested, and the “increased resistance of DNR-resistant” value [5] was 3 fold, the IC50 [5] was 1 µM and the IC50 (parental Jurkat cells) was 0.316 µM.
